Assay results as given in publication PMC8905580, “Aggregation Behavior of Structurally Similar Therapeutic Peptides Investigated by ^1H NMR and All-Atom Molecular Dynamics Simulations” (Molecular Pharmaceutics, 2022).
Square brackets hold non-standard residues; d marks the D form. Peptide text beside a SMILES is read from it. * marks the point of attachment. dPhe(4-NHCONH2) = NC(=O)Nc1ccc(C[C@@H](N)C(=O)O)cc1; Dihydroorotyl(S) = O=C1C[C@@H](C(=O)*)NC(=O)N1; dPhe(4-Cl) = N[C@H](Cc1ccc(Cl)cc1)C(=O)O; Phe(4-NH2) = Nc1ccc(C[C@H](N)C(=O)O)cc1; d2Nal = N[C@H](Cc1ccc2ccccc2c1)C(=O)O; Lys(iPr) = CC(C)NCCCC[C@H](N)C(=O)O; d3Pal = N[C@H](Cc1cccnc1)C(=O)O

How the values were obtained:
[1] = Visual inspection of samples for turbidity and viscosity; assay type: physicochemical; conditions: all samples 0.1-10 mM acetate salt in 100% H2O, no buffer, no pH adjustment; NMR tube in light box compared with pure water; room temperature
Protocol: (§1) ^1H NMR experiments were performed at peptide concentrations of 0.1, 0.5, 1, 2, 5, and 10 mM in 100% H2O. Peptide solutions were prepared in glass vials without pH adjustments, as the addition of concentrated acid or base results in local pH variations that might induce aggregation. Diffusion NMR experiments were performed at peptide concentrations of 3 and 10 mM in 100% D2O. Thus, the diffusion NMR results may not be perfectly representative of the situation in the samples in H2O, but general conclusions can still be drawn.
(§2) The samples were gently agitated, by manual swirling, until the solution appeared visually homogeneous and 450 μL of each sample was transferred to disposable 5 mm NMR tubes (Type 5TA 178 mm from Teknolab Sorbent, Sweden). Aliquots were pipetted slowly to reduce the risk of possible shear-induced aggregation. The time between sample preparation and the start of the NMR measurement was around 15 min. On selected samples, the approximate pH was assessed with pH indicator strips (Scharlau, pH 2.0–9.0, TP0209000S) after aliquots for the NMR samples were taken out.
The NMR tubes containing samples were visually inspected in a light box and compared to an NMR tube containing pure water to simplify identification of visually detectable aggregates.

[2] = 1H NMR in neat H2O, aggregation with concentration and time; assay type: physicochemical
Protocol: as §1, §2
NMR experiments were performed at 25 °C on either a Varian Unity Inova 500 MHz spectrometer equipped with a Z-spec DBG500-5EF 5 mm dual broadband gradient probe or a Bruker AVANCE III HD 500 MHz spectrometer equipped with a BBO probe, Bruker SMART probe. Spectra were recorded with an excitation sculpting sequence for solvent suppression.[40] […] On the Varian, 300 scans were used on samples of 0.1–1 mM and 64 on 1–10 mM (1 mM was measured using both settings to bridge the concentration series and ensure comparability), which gave adequate signal for unaggregated samples. […]
The absolute integral values (IntC), at each investigated concentration, for signals arising from the methyl groups of leucine (6H; for D-Phe^6-GnRH, cetrorelix, and degarelix) or nor-leucine (3H; for ozarelix) were determined. […] Additionally, IntC of the signal from the acetate counterion (a singlet) were determined for all peptides. […]

[3] = Approximate sample pH by pH indicator strips; assay type: physicochemical; conditions: all concentrations and time points investigated, H2O
[4] = parameters: method as in PMID 33586081; conditions: seen as reduction in total detectable signal and decrease in fraction of sharp signals; cited from earlier work

CC(=O)N[C@H](Cc1ccc2ccccc2c1)C(=O)N[C@H](Cc1ccc(Cl)cc1)C(=O)N[C@H](Cc1cccnc1)C(=O)N[C@@H](CO)C(=O)N[C@@H](Cc1ccc(NC(=O)[C@@H]2CC(=O)NC(=O)N2)cc1)C(=O)N[C@H](Cc1ccc(NC(N)=O)cc1)C(=O)N[C@@H](CC(C)C)C(=O)N[C@@H](CCCCNC(C)C)C(=O)N1CCC[C@H]1C(=O)N[C@H](C)C(N)=O [degarelix] (Ac-[d2Nal][dPhe(4-Cl)][d3Pal]S[Phe(4-NH2)](Dihydroorotyl(S))[dPhe(4-NHCONH2)]L[Lys(iPr)]P[dA]-NH2)
Visual appearance of samples over the investigated time span [1]: visually clear | Concentration at which a distinct group of broad peaks at 1.2-1.6 ppm (intermediately sized aggregates) appears ([2]; 1H NMR, 25 °C, 100% H2O): ≥ 1000 µM | Change of 1H NMR spectra over time, 5 and 10 mM samples ([2]; 5 and 10 mM in 100% H2O, over investigated timespan (ozarelix: rapid 4 scan experiments about 15 and 25 min after preparation, 24 h)): increased notably in intensity | Fate of acetate counterions in the peptide aggregates formed (1H NMR acetate signal) ([2]; acetate salts, 0.1-10 mM in 100% H2O, 25 °C): exclusion | Sample pH [3]: ~ 5.5 | Effect of buffer or background salt on aggregation (1H NMR) [4]: strongly enhance aggregation
